{
  "source": "patent US12576048B2",
  "about": "“Anti-cancer activity of adamantane derivatives” (The Regents of the University of California, priority 2018, dated 2026)",
  "key": {"[1]": {"tested_on": "CAL-27 squamous cell carcinoma cell line", "experiment": "MTT proliferation assay, CAL-27", "type": "cell-based, human"}, "[2]": {"tested_on": "AT-84 E7 squamous cell carcinoma", "experiment": "MTT proliferation assay, AT-84-E7 (Example 2)", "type": "cell-based, murine", "conditions": "48 hours; FIG. 16B"}, "[3]": {"tested_on": "B16-OVA melanoma", "experiment": "MTT proliferation assay, B16-OVA (Example 2)", "type": "cell-based, murine", "conditions": "48 hours; FIG. 16A"}, "[4]": {"tested_on": "B16-OVA melanoma tumor line", "experiment": "MHC Class I expression in B16-OVA by flow cytometry (Example 2)", "type": "cell-based, murine", "conditions": "24 hours at indicated concentrations; FIG. 15"}, "[5]": {"tested_on": "MOSCC3 squamous cell carcinoma", "experiment": "MTT proliferation assay, MOSCC3 (Example 2)", "type": "cell-based, murine", "conditions": "48 hours; FIG. 16C"}, "[6]": {"tested_on": "SCC-47 squamous cell carcinoma cell line", "experiment": "MTT proliferation assay, SCC-47", "type": "cell-based, human", "conditions": "rimantadine alone; FIG. 13", "protocol": "(§1) FIG. 13 has plots showing the effect of rimantadine on human HNSCC lines as labeled. BrdU cell cycle analysis (upper) and MTT proliferation assay (lower).\n(§2) Cell cycle progression was analyzed on the basis of BrdU incorporation following […] cell staining with BrdU-APC and 7-AAD using BD Pharmingen BrdU Flow Kit. (BD, Franklin Lakes, NJ) according to the manufacture's protocol. Cells were analyzed using flow cytometry. Cell proliferation was assessed by using MTT [3-(4,5-dimethylthiazol-2-yl)-2,5-diphenyltetrazolium bromide]. First, cells were seeded in 96-well plate and cultured for 2-3 days. Next, culture media was replaced with fresh media containing 0.5 mg/ml of MTT (Sigma) and the plates were incubated for 4 hours at 37° C. Then, purple formazan crystals were dissolved in lysis buffer (4 mM HCl and 0.1% NP-40 in isopropanol) and the absorbance was recorded on a TECAN infinite M200 microplate reader (Tecan, Männedorf, Switzerland) at a wavelength of 570 nm with absorbance at 650 nm as reference."}, "[7]": {"tested_on": "CAL-27 squamous cell carcinoma cell line", "experiment": "BrdU cell cycle analysis, CAL-27", "type": "cell-based, human", "conditions": "rimantadine alone; FIG. 13", "protocol": "as §1, §2"}, "[8]": {"tested_on": "B16-OVA", "experiment": "BrdU cell cycle analysis, B16-OVA", "type": "cell-based, murine", "conditions": "24 hours; FIG. 8", "protocol": "(§3) FIG. 8 has plots showing the BrdU cell cycle analyzed for 24 hours following treatment with rimantadine,\nas §2"}, "[9]": {"tested_on": "4MOSC1 tumor cells", "experiment": "Tumor volume in mice inoculated with 4MOSC1 tumor cells (orthotopic HNSCC model)", "type": "in vivo", "conditions": "10 mg/kg IP once daily, 7 injections once tumors palpable; FIG. 1D", "protocol": "(§4) FIGS. 1A-1E are plots showing the effects of rimantadine or PEGylated rimantidine on tumor volume in different cancer models.\n(§5) Mice were injected subcutaneously with 1.0 to 5.0×10^5 AT-84-E7, 1.5×10^5 B16-OVA, or 5.0×10^5 4T1 cells resuspended in 100 μl of PBS in the right flank. For orthotopic models, 1.0×10^5 AT-84-E7 or 1.0×10^6 4MOSC1 in 30 μl of PBS were injected into tongue. Tumor diameter was measured every 2 to 3 days with an electronic caliper and reported as volume using the formula; tumor volume (mm3)=(length×width2)/2. Once tumors become palpable, mice were treated with 200 μg of anti-PD-L1 antibody (BioXcell, West Lebanon, NH) via IP injection every 3 days for a total of three or four injections per mouse, or mice were treated with 10 mg/kg body weight of rimantadine (Sigma, St. Louis, MO) via IP injection daily for 7 days. For adoptive transfer experiments, first, single-cell suspension of spleen from OT-1 mice were cultured in media containing 10 ng/ml OVA SIINFEKL peptide (InvivoGen, San Diego, CA) and 2 ng/ml recombinant IL-2 (PeproTech, Rocky Hill, NJ) […], and then 4.0×10^6 cells were intravenously injected into B16-OVA-bearing mice."}, "[10]": {"tested_on": "AT84-E7/E5 tumor cells", "experiment": "Tumor volume in mice inoculated with AT84-E7/E5 tumor cells", "type": "in vivo", "conditions": "10 mg/kg IP once daily, 7 injections starting on day 8; FIG. 1A", "protocol": "as §4, §5"}, "[11]": {"tested_on": "CAL-33 squamous cell carcinoma cell line", "experiment": "BrdU cell cycle analysis, CAL-33", "type": "cell-based, human", "conditions": "rimantadine alone; FIG. 13", "protocol": "as §1, §2"}, "[12]": {"tested_on": "T cells", "experiment": "T-cell proliferation assay using CFSE-labeled T-cells", "type": "cell-based", "conditions": "FIGS. 10A and 10B", "text": "FIGS. 10A and 10B are plots showing T-cell proliferation assay using CFSE-labeled T-cells simulated to proliferate in the presence or absence of rimantadine."}, "[13]": {"tested_on": "AT-84-E7 tumors which didn't express E5", "experiment": "Tumor volume in mice inoculated with AT-84-E7 cells not expressing E5 (empty vector)", "type": "in vivo", "conditions": "rimantadine for one week; FIG. 2A vs 2B", "protocol": "FIGS. 2A and 2B are plots showing the effects of rimantadine on tumor.\nas §5"}, "[14]": {"tested_on": "AT-84-E7", "experiment": "BrdU cell cycle analysis, AT-84-E7", "type": "cell-based, murine", "conditions": "24 hours; FIG. 8", "protocol": "as §3, §2"}, "[15]": {"tested_on": "Tau", "experiment": "Tau mRNA expression by RT-qPCR", "type": "cell-based", "conditions": "24 hours; FIGS. 12A and B", "protocol": "FIGS. 12A and 12B are plots showing Tau mRNA expression, which was analyzed 24 hours following treatment with rimantadine.\n(§6) Total RNA were extracted using TRIzol Reagent (Invitrogen) and reverse transcribed with qScript cDNA Synthesis Kit (Quanta BioSciences, Beverly, MA) according to the manufacturer's instructions. Quantitative PCR analysis were conducted by using KAPA SYBR […] FAST (KAPA Biosystems, Wilmington, MA) on the 7900HT Fast Real-Time PCR System (Applied Biosystems, Foster City, CA)."}, "[16]": {"tested_on": "CAL-33 squamous cell carcinoma cell line", "experiment": "MTT proliferation assay, CAL-33", "type": "cell-based, human", "conditions": "rimantadine alone; FIG. 13", "protocol": "as §1, §2"}, "[17]": {"tested_on": "SCC-47 squamous cell carcinoma cell line", "experiment": "BrdU cell cycle analysis, SCC-47", "type": "cell-based, human", "conditions": "rimantadine alone; FIG. 13", "protocol": "as §1, §2"}, "[18]": {"tested_on": "Stathmin", "experiment": "Stathmin mRNA expression by RT-qPCR", "type": "cell-based", "conditions": "24 hours", "protocol": "FIGS. 11A and 11B are plots showing Stathmin mRNA expression, which was analyzed 24 hours following treatment with rimantadine in AT-84-E7 cells and B16-OVA cells, respectively.\nas §6"}, "[19]": {"tested_on": "murine and human cell lines engineered to express HPV16 E5", "type": "cell-based", "conditions": "24 hours; FIG. 14"}, "[20]": {"tested_on": "multiple cell lines (AT-84-E7, B16-OVA, 4T1, B16, MC38)", "conditions": "rimantadine 100 μM, 48 hours or 24 hours; FIGS. 3A-3E, 4A-D", "procedure": "FIGS. 3A-3E are plots showing MHC I expression or antigen-presentation (H-2Kb/[sequence]) as analyzed by flow cytometry after rimantadine treatment (100 μM, 48 hours). FIG. 3A is a plot showing MHC I expression for the AT-84-E7 model. FIG. 3B is a plot showing MHC I expression for the B16-OVA model. FIG. 3C is a plot showing antigen-presentation (H-2Kb/[sequence]) for the B16-OVA model. FIG. 3D is a plot showing MHC I expression for the 4T1 model.\nFIGS. 4A-4D are plots showing MHC expression in tumor cells. FIGS. 4A and 4B show MHC I expression analyzed by flow cytometry 48 hours after rimantadine treatment for B16 and MC38 cells, respectively. FIGS. 4C and 4D are plots showing expression of MHC I and antigen presentation (H-2Kb/[sequence]), respectively, 24 hours after rimantadine treatment in B16-OVA cells.\nAfter obtaining single-cell suspensions, each sample was incubated with an Fc blocking reagent (anti-CD16/32 antibody; BioLegend, San Diego, CA). Following Fc blockade, cells were stained with fluorescent-labeled antibodies [BioLegend, BD Bioscience (San Jose, CA), or eBiosciences (Thermo Fisher Scientific, Waltham, MA)]. LIVE/DEAD Fixable Cell Staining Kit (Invitrogen) was used for viability staining. […] Cells were analyzed using a BD FACS Aria II or LSR II flow cytometer (BD). Data was analyzed on FlowJo (FlowJo, LLC, Ashland, OR). […]"}, "[21]": {"tested_on": "4T1 tumor cells", "experiment": "Tumor volume in mice inoculated with 4T1 tumor cells", "type": "in vivo", "conditions": "10 mg/kg IP once daily, 7 injections starting on day 6; FIG. 1C", "protocol": "as §4, §5"}, "[22]": {"tested_on": "E5-positive AT-84-E7"}, "[23]": {"tested_on": "B16-OVA cells co-cultured with B3Z cells", "experiment": "B3Z activation assay", "type": "cell-based", "conditions": "100 μM rimantadine 24 hours, then 24 hours co-culture; FIG. 5", "protocol": "FIG. 5 is a plot showing B3Z activation after rimantadine treatment (48 hours).\nB16-OVA cells were seeded into 96-well plate and treated with 100 μM rimantadine for 24 hours, prior to addition of B3Z cells. After 24 hours of co-culture, medium was removed and 100 μl of lysis buffer [0.155 mM chlorophenol red β-D-galactopyranoside (CPRG) (Roche), 0.125% Nonidet P-40 Alternative (EMD-Calbiochem), and 9 mM MgCl2 (Sigma) in PBS] was added. After incubation for 4 hours at 37° C., the absorbance at 570 nm was determined on a TECAN infinite M200 microplate reader."}, "[24]": {"tested_on": "RAW264.7 cell line", "conditions": "48 hours after treatment", "procedure": "FIGS. 7A and 7B are plots showing cell surface expression of MHC I (H-2Kd) and MHC II (I-A/I-E), respectively, on rimantadine-treated RAW264.7 48 hours after treatment. Data are shown as mean±S.E.M. Statistics were done using an unpaired t-test.\nAfter obtaining single-cell suspensions, each sample was incubated with an Fc blocking reagent (anti-CD16/32 antibody; BioLegend, San Diego, CA). Following Fc blockade, cells were stained with fluorescent-labeled antibodies [BioLegend, BD Bioscience (San Jose, CA), or eBiosciences (Thermo Fisher Scientific, Waltham, MA)]. LIVE/DEAD Fixable Cell Staining Kit (Invitrogen) was used for viability staining. For intracellular staining, cells were processed with Foxp3/Transcription Factor Fixation/Permeabilization Concentrate and Diluent (Invitrogen). Cells were analyzed using a BD FACS Aria II or LSR II flow cytometer (BD). Data was analyzed on FlowJo (FlowJo, LLC, Ashland, OR). For each antibody, the following clones were used: CD45.2 (104), CD3e (145-2C11), CD4 (RM4-5), CD8a (5H10), CD25 (3C7, PC61), CD44 (IM7), CD62L (MEL-14), IFN-γ (XMG1.2), Foxp3 (MF23), H-2Kb (AF6-88.5), H-2Kk (36-7-5), H-2Kd (SF1-1.1), H-2Kb/[sequence] (eBio25-D1.16), I-A/I-E (2G9), CD49b (DX5), CD11b (M1/70), FLAG (L5), CD31 (MEC13.3), NK-T/NK Cell Antigen (U5A2-13), CD102 (3C4 (MIC2/4)), CD62P (RMP-1), CD105 (MJ7/18), CD106 (429 (MVCAM.A)), and CD162 (2PH1)."}, "[25]": {"tested_on": "AT-84-E7 and B16-OVA models", "experiment": "Cell proliferation assay (MTT), FIG. 9", "type": "cell-based", "conditions": "48 hours", "protocol": "FIG. 9 has plots showing the cell proliferation assay (MTT), which was analyzed 48 hours following treatment with rimantadine.\nas §2"}, "[26]": {"tested_on": "B16-OVA tumor cells", "experiment": "Tumor volume in mice inoculated with B16-OVA tumor cells", "type": "in vivo", "conditions": "10 mg/kg IP once daily, 7 injections starting on day 10; FIG. 1B, 1E", "protocol": "as §4, §5"}},
  "data": [
    {"smiles": "CC12CC3CC(C)(C1)CC(N)(C3)C2", "note": "[memantine]", "values": [
      {"measurement": "proliferation (MTT)", "setting": "[1]; 48 hours, FIG. 17A", "result": "inhibited proliferation"},
      {"measurement": "proliferation (MTT)", "setting": "[1]; 72 hours, FIG. 17B", "result": "inhibited proliferation"},
      {"measurement": "proliferation (MTT)", "setting": "[2]", "result": "inhibit proliferation"},
      {"measurement": "proliferation (MTT)", "setting": "[3]", "result": "inhibit proliferation"},
      {"measurement": "MHC Class I Expression", "setting": "[4]", "result": "upregulated"},
      {"measurement": "proliferation (MTT)", "setting": "[5]", "result": "inhibit proliferation"}
    ]},
    {"smiles": "CC(N)C12CC3CC(CC(C3)C1)C2", "note": "(centres unmarked) [rimantadine]", "values": [
      {"measurement": "proliferation (MTT)", "setting": "[6]", "result": "decreased proliferation"},
      {"measurement": "cell cycle arrest (BrdU)", "setting": "[7]", "result": "Significant cell cycle arrest"},
      {"measurement": "GO/G1 cell cycle arrest", "setting": "[8]", "result": "significant increases"},
      {"measurement": "S phase", "setting": "[8]", "result": "significant decreases"},
      {"measurement": "anti-tumor activity (tumor volume)", "setting": "[9]", "result": "significant anti-tumor activity"},
      {"measurement": "tumor size compared to control groups", "setting": "[10]", "result": "statistically significant decreases in tumor size"},
      {"measurement": "cell cycle arrest (BrdU)", "setting": "[11]", "result": "Significant cell cycle arrest"},
      {"measurement": "proliferation of T cells", "setting": "[12]", "result": "no significant effect"},
      {"measurement": "anti-tumor effect (tumor volume) relative to E5-expressing tumors", "setting": "[13]", "result": "decreased"},
      {"measurement": "GO/G1 cell cycle arrest", "setting": "[14]", "result": "significant increases"},
      {"measurement": "S phase", "setting": "[14]", "result": "significant decreases"},
      {"measurement": "Tau mRNA expression", "setting": "[15]", "result": "Decreases"},
      {"measurement": "proliferation (MTT)", "setting": "[16]", "result": "decreased proliferation"},
      {"measurement": "proliferation (MTT)", "setting": "[1]; 48 hours, FIG. 17A", "result": "inhibited proliferation"},
      {"measurement": "proliferation (MTT)", "setting": "[1]; 72 hours, FIG. 17B", "result": "inhibited proliferation"},
      {"measurement": "proliferation (MTT)", "setting": "[1]; rimantadine alone, FIG. 13", "result": "decreased proliferation"},
      {"measurement": "cell cycle arrest (BrdU)", "setting": "[17]", "result": "Significant cell cycle arrest"},
      {"measurement": "Stathmin mRNA expression", "setting": "[18]; AT-84-E7 cells, FIG. 11A", "result": "significant decreases"},
      {"measurement": "Stathmin mRNA expression", "setting": "[18]; B16-OVA cells, FIG. 11B", "result": "significant decreases"},
      {"measurement": "cell cycle arrest (BrdU)", "setting": "[19]", "result": "induced cell cycle arrest"},
      {"measurement": "surface expression of MHC", "setting": "[20]", "result": "Significant increases"},
      {"measurement": "tumor sizes compared to control groups", "setting": "[21]", "result": "statistically significant decreases in tumor sizes"},
      {"measurement": "proliferation (MTT)", "setting": "[2]", "result": "inhibit proliferation"},
      {"measurement": "cell surface expression of MHC I", "setting": "[22]", "result": "restored"},
      {"measurement": "proliferation (MTT)", "setting": "[3]", "result": "inhibit proliferation"},
      {"measurement": "increase in recognition of model tumor antigen by B3Z cells", "setting": "[23]", "result": 3, "unit": "fold"},
      {"measurement": "MHC class I surface expression", "setting": "[24]; H-2Kd, FIG. 7A", "result": "significant increases"},
      {"measurement": "MHC class II surface expression", "setting": "[24]; I-A/I-E, FIG. 7B", "result": "significant increases"},
      {"measurement": "cell proliferation (MTT)", "setting": "[25]", "result": "Suppression of cell proliferation"},
      {"measurement": "MHC Class I Expression", "setting": "[4]", "result": "upregulated"},
      {"measurement": "tumor sizes compared to control groups", "setting": "[26]", "result": "statistically significant decreases in tumor sizes"},
      {"measurement": "proliferation (MTT)", "setting": "[5]", "result": "inhibit proliferation"}
    ]}
  ]
}
